Consider 90 compounds from a melting point compilation (Tetko et al.; mined from patent text by program, amines drawn as free bases though some values may be those of a salt).

As usually defined, the melting point is the temperature, or range, at which the solid turns liquid. Consider `OCC1OC(n2cnc3c(NC4CCCc5ccccc54)ncnc32)C(O)C1O` (stereo not given), for which the melting point is 95.5 to 100 °C.

`O=Cc1cc2ccccc2c(-c2ccc(I)cc2)n1` registered a melting point of 243 to 245 °C.

Regarding `CCCCCOC1CCN(S(=O)(=O)C=Cc2ccccc2)C1=O` (stereo not given), the melting point fell in the range of 66 to 68 °C.

On to `OCCOc1ccc(I)cc1`, for which the melting point was in the range of 76 to 77 °C.

The compound `O=C(O)Cc1ccc(C2CCCC(=O)C2)cc1` (stereo not given) gave a melting point of 96 °C.

`CN1CCN(c2cccc3c2C[C@H](NS(C)(=O)=O)CC3)CC1` returned a melting point of 135 to 137 °C.

Take `Cc1ccc(-c2cncnc2O)cc1`: the melting point was 189 to 192 °C.

Regarding `CCC1=C(C#N)C(c2cccc(Cl)c2Cl)c2c[nH]nc2N1` (stereo not given), the melting point is more than 300 °C.

Consider `CN(CC1CCN(c2ccc(OC(F)(F)F)cc2)CC1)c1ccc(OC[C@@]2(C)Cn3cc([N+](=O)[O-])nc3O2)cc1`, for which the melting point is 172 to 175 °C.

As for `COc1ccc(-c2cc(=O)c3c(O)cc(OCC4=COC(C)(C)O4)cc3o2)cc1OC`, the melting point turned out to be 166 °C.

`C=C(C)C(CC=C(C)C)CC12CC(CC=C(C)C)C(C)(C)C(CC=C(C)C)(C(=O)C(C(=O)c3ccc(O)c(O)c3)=C1O)C2=O` (stereo not given) returned a melting point of 126 °C.

`CCOC(=O)C(Cc1ccccc1)NC(=O)N1CCc2cc(S(=O)(=O)N3CCN(c4cccc(Cl)c4)CC3)ccc21` (stereo not given) yielded a melting point of 123 to 124 °C.

As to `O=C(O)CCCCCNC(=O)c1ccc(NC(=O)c2ccccc2O)cc1`, the melting point fell in the range of 201 to 203 °C.

Consider `C#CC1N(C(=O)Oc2ccccc2)c2ccc(OCc3ccccc3[N+](=O)[O-])cc2C23OC12CCCC3=O` (stereo not given), for which the melting point fell in the range of 128 to 130 °C.

In the case of `CC(C)(C)OC(=O)NC1CCCOCC=CC2CC2(C(=O)NS(=O)(=O)C2CC2)NC(=O)C2CC(OC(=O)C3CCCCC3)CN2C1=O` (stereo not given), the melting point was in the range of 128 to 130 °C.

As for `O=C1Cc2ccccc2N1c1c(Cl)cc(OCc2ccc3ccccc3n2)cc1Cl`, the melting point was determined as 158 °C.

Compound `CN(C)CCNc1ccc(Cl)nn1` came in with a melting point of 86 to 92 °C.

Regarding `COc1ccccc1S(=O)(=O)C(C)(Cc1ccc2ncccc2c1)C(=O)NO` (stereo not given), the melting point was 206 °C.

Take `CC(C)c1c(CO)c(-c2ccc(F)cc2)nn1-c1ccccc1`: the melting point was in the range of 144 to 147 °C.

`COc1cc(OC)c2cc(-c3ccc(C#N)cc3)oc2c1` registered a melting point of 220 to 221 °C.

Compound `COC(=O)C(=O)c1ccc(OCCCC(=O)c2ccc3ccccc3c2)cc1` yielded a melting point of 86 to 87 °C.

On to `CCOC(=O)C1=Cc2cc(OC(F)(F)F)ccc2NC1C(F)(F)F` (stereo not given), for which the melting point is 123 to 125 °C.

`C=C(c1cccnc1)c1c(CC(=O)OC)[nH]c2ccccc12` had a melting point of 154 to 157 °C.

With `Cc1cc2n(n1)-c1ccc(Cl)cc1C(c1ccccc1)=NC2`, the melting point was 105 to 107 °C.

As to `COc1ccc(-n2nc(C)c(CC(=O)O)c2C)cc1`, the melting point fell in the range of 154 to 155 °C.

Consider `CC[C@@H]1N(c2ccc(C#N)c(Cl)c2C)C(=O)C[C@@]1(O)C1CC1`, for which the melting point fell in the range of 177 to 179 °C.

Compound `Cc1cc(C)n(-c2nc(Nc3ccc(I)cc3)c3ccccc3n2)n1` yielded a melting point of 226 to 229 °C.

Compound `CCOC(=O)N1c2ccccc2Sc2cc(O)c3ccccc3c21` yielded a melting point of 205 to 206 °C.

In turn, `COC(=O)CC(C)N=c1sc2ccccc2s1` (stereo not given) registered a melting point of 78 to 80 °C.

For the compound `CCCCc1ncc(C=C2C(=O)Nc3ccc(Cl)cc32)n1Cc1ccc(C(=O)OC)cc1`, the melting point lay within 238 to 241 °C.

Consider `CCOC(=O)C1C(Cl)C(=O)N1c1ccc(OC)cc1` (stereo not given), for which the melting point was 99 to 100 °C.

Regarding `Nc1cc(O)ccc1CCCl`, the melting point lay in the range of 96 to 100 °C.

With `O=C(Nc1cccc2c(CO)c(Br)cnc12)c1c(Cl)cccc1Cl`, the melting point fell in the range of 246 to 247 °C.

The compound `CC12CCC3C(CC=C4CC(O[Si](C)(C)C)CCC43C)C1CCC2=O` (stereo not given) displayed a melting point of 173 to 174 °C.

For the compound `CCn1nccc1Nc1cc(OC)ccc1C(=O)O`, the melting point was 130 to 135 °C.

`COCOc1ccc2cc(Br)ccc2c1` returned a melting point of 46.8 to 49.2 °C.

`Cn1nc(-c2nc(C=O)c(Cl)cc2F)c(Cl)c1OC(F)F` displayed a melting point of 120 to 121 °C.

For the compound `Cc1c(C)c2c(c(C)c1OCc1ccccc1)CC[C@@](C)(CCO)O2`, the melting point lay in the range of 55 to 56 °C.

Take `CC(C)(NC(=O)CCc1nccn1Cc1ccccc1)c1ccc(Cl)cc1`: the melting point fell in the range of 128 to 129 °C.

For `CC(=O)OC1(C(C)=O)CCC2C3CCC4=CC(=O)CCC4(C)C3CCC21C` (stereo not given), the melting point lay in the range of 243 to 245 °C.

For `O=C1CCN(c2ccncc2)CC1`, the melting point was in the range of 101 to 104 °C.

`CCCc1c(OCCCOc2ccc3c(c2CCC)OC(CCC(=O)OC)CC3=O)ccc(C(C)=O)c1O` (stereo not given) registered a melting point of 101 to 102 °C.

Regarding `Cn1nc(N2c3cc(F)ccc3CC2C(=O)N2CCCCCC2)ccc1=O` (stereo not given), the melting point fell in the range of 204 to 207 °C.

`O=C(O)c1c(-c2ccccc2)csc1N1C(=O)c2ccccc2C1=O` had a melting point of 198 to 199 °C.

For the compound `COc1cccc(C=C2N=C(c3ccccc3)OC2=O)c1`, the melting point was in the range of 100 to 102 °C.

Turning to `NS(=O)(=O)c1ccc(C2=C(c3ccc(-c4cscn4)cc3)C(=O)OC2)cc1F`, the melting point is 194 °C.

`O=S(=O)(Cc1ccccc1)c1c(Cl)nc(Cl)nc1Cl` showed a melting point of 160 to 162 °C.

In turn, `CNC(=O)CC1CN=C(c2cc3cc(Oc4ccc(S(C)(=O)=O)cn4)cc(OC(COC)COC)c3[nH]2)S1` (stereo not given) returned a melting point of 123 to 125 °C.

On to `COc1ccc(CCC(C)NC(Cc2ccccc2C)=NC#N)cc1` (stereo not given), for which the melting point is 103 to 104 °C.

In turn, `COC1=C(OC)C(=Nc2ccc(Cl)c(Cl)c2)N(C)C1=O` gave a melting point of 111 to 113 °C.

Take `CCCc1c(OCCOc2ccc(S(=O)(=O)c3nnn[nH]3)cc2)ccc(C(C)=O)c1O`: the melting point lay in the range of 88 to 90 °C.

The compound `CCC1(C)CCNC1=O` (stereo not given) showed a melting point of 39 to 40 °C.

`CC(C)NCC(O)COc1cccc2c1CC1OC1C2` (stereo not given): the melting point was in the range of 106 to 110 °C.

`Cc1nccn1CCCNC(=O)c1ccc(Cl)nc1` came in with a melting point of 175 to 177 °C.

In the case of `O=c1[nH]c2ccc3c(c2o1)OC(CN1CC=C(c2c[nH]c4ccccc24)CC1)CO3` (stereo not given), the melting point is 202 °C.

The compound `CCCn1c(C)c(C(C)=O)c(N)c1-c1ccccc1` returned a melting point of 113 to 115 °C.

Compound `CCOC(=O)N1CCN(c2ccc(C(=O)CCc3ccc(NC4=NCCN4)cc3)cc2)CC1` showed a melting point of 150 to 151 °C.

`CCOC(=O)CCNc1ncccc1NC(=O)c1ccccc1Cl` displayed a melting point of 90 to 92 °C.

The compound `COC(=O)C(Oc1cc(OCc2ccsc2)ccc1C#N)c1ccccc1F` (racemic) came in with a melting point of 104 to 106 °C.

In turn, `CCN(C(C)=O)c1ccc2c(c1)Cc1c-2[nH]c2ccccc12` returned a melting point of 232 °C.

Turning to `Cc1c(-c2ccccc2)nn(N)c1OCCN1CCOCC1`, the melting point stood at 96 °C.

In the case of `CS(=O)(=O)NCCn1c2ccccc2c(=O)c2ccccc21`, the melting point lay in the range of 226 to 227 °C.

For the compound `COC(=O)c1cc(NC(=O)Nc2ccccc2)ccn1`, the melting point fell in the range of 206 to 208 °C.

`COC(COc1ccc(Br)c(C)c1C)OC` gave a melting point of 40 to 41 °C.

`CCCc1nccn1N=Cc1ccccc1` returned a melting point of 61 to 62 °C.

`CCCc1cc(O)cc2cc(-c3ccc(O)cc3)oc12` registered a melting point of 178 to 180 °C.

Consider `NC(=O)CON=C(C(=O)O)c1ccco1`, for which the melting point lay in the range of 143 to 145 °C.

For the compound `O=C(O)C(=O)c1cn(Cc2ccccc2)c2ccc(Oc3ccc(C(F)(F)F)cc3Cl)cc12`, the melting point is 152 to 154 °C.

With `Sc1ccc(-c2ccc(-c3ccc(S)c(S)c3)cc2)cc1S`, the melting point is 171 to 172 °C.

Compound `CCN(c1cc(Cl)ccc1C(=O)c1cnoc1C1CC1)S(C)(=O)=O` came in with a melting point of 114 to 116 °C.

In turn, `Cc1cc(CCCCCOc2ccc(C3=NCCO3)cc2CO)on1` had a melting point of 140 to 141 °C.

On to `O=Cc1cn(Cc2ccc(Cl)cc2)c2ccccc12`, for which the melting point is 122 °C.

In turn, `O=Cc1cc([N+](=O)[O-])ccc1OCCCc1ccccc1` returned a melting point of 72 to 73 °C.

Compound `CSc1nc2ccc(C)cc2c2nn(-c3ccccc3)c(=O)n12` registered a melting point of more than 400 °C.

The compound `CC(=O)c1cc(CC(=O)O)cc2c1NC(C(F)(F)F)CC2` (stereo not given) came in with a melting point of 173 to 174 °C.

`CN(C)c1ccc2c(c1)C(=O)CC(c1cccc(OCc3ccccc3)c1)=N2`: the melting point was 307 to 308 °C.

With `O=C(Nc1cnccn1)Nc1cccc2c1C1C[C@@H](O)CCN1C2=O` (stereo not given in full), the melting point was determined as 250 °C.

As for `COc1nc(C)cnc1NS(=O)(=O)c1cnccc1-c1ccc(CC(C)C)cc1`, the melting point was in the range of 232 to 233 °C.

In turn, `CCNc1nc(C(C)C)nc(Cl)c1[N+](=O)[O-]` gave a melting point of 50 °C.

For `COc1ccc(-c2ccc(C=O)c3ccccc23)cc1F`, the melting point was in the range of 137 to 138 °C.

In turn, `CCC(=O)N[C@@H]1Cc2ccccc2N(OC)C1=O` registered a melting point of 98 to 99 °C.

In turn, `Oc1cccc(F)c1OC(COCc1ccccc1)C(Cl)COCc1ccccc1` (stereo not given) showed a melting point of 77 to 79 °C.

On to `O=[N+]([O-])c1cn(-c2cccnc2)nc1-c1ccccc1`, for which the melting point was 144 to 146 °C.

As for `C=CCNC(=O)c1c(O)c2ccc(Cl)cc2n(C)c1=N`, the melting point lay within 212 to 214 °C.

`O=C(NC1c2sc([N+](=O)[O-])cc2OCC1O)c1ccc(C(F)(F)F)cc1` (stereo not given) had a melting point of 219 to 220 °C.

Take `Cc1c(CCO)c2cc(OCc3csc(-c4ccccc4)n3)ccc2n1Cc1ccccc1`: the melting point was in the range of 114 to 116 °C.

For the compound `O=C(NO)c1ccc(-c2c3ccccc3nn2Cc2ccccc2)cc1`, the melting point lay within 201 to 203 °C.

In turn, `C[C@@H]1CCCN1CCCOc1ccc(-c2ccc(S(=O)(=O)Cc3ccccc3)nn2)cc1` displayed a melting point of 136 °C.

`O=[N+]([O-])c1ccc(Oc2ccc(Oc3ccc([N+](=O)[O-])cc3)c(P(=O)(c3ccccc3)c3ccccc3)c2)cc1` returned a melting point of 239 to 242 °C.

`O=[N+]([O-])c1ccc2c(c1)CC(Cl)c1ccccc1S2` (stereo not given): the melting point is 74 to 77 °C.
